Measured values: patent publication US8399681B2, “Substituted aminothiazolone indazoles as estrogen related receptor-alpha modulators” (Janssen Pharmaceutica NV, priority 2009, dated 2013)

Target: T1, ERR1 (also known as ERR-α or ERR-1) (Homo sapiens, UniProt P11474)
T1 sequence (P11474 193-421 limits assumed): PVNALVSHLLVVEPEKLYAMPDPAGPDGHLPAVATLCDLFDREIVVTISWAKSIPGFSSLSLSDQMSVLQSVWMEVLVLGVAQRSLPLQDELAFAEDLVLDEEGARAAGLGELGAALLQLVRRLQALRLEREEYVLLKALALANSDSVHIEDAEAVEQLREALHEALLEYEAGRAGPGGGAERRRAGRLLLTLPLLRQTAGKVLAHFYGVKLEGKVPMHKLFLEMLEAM
Experiment: TR-FRET assay (disruption of co-activator peptide binding)
Assay type: biochemical
Settings: 6His-tagged ERR1 LBD, GST-hSRC2 co-activator polypeptide; average of 3 independent experiments
Outline: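 His6-ERR1 LBD (6 nM) with GST-SRC-2 peptide (6 nM), anti-GST Eu cryptate (30 nM) and anti-His XL665 (7.5 nM) in Tris pH 8/KCl/DTT/BSA buffer, equilibrated 4-18 h at 25 °C. Ex 340, em 615/665 nm; hyperbolic dose-response fit, mean of 3 experiments.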

O=C1N=C(N2CCC[C@@H](C(=O)O)C2)S/C1=C\c1ccc2c(cnn2Cc2ccc(C(F)(F)F)cc2C(F)(F)F)c1 [Example 38, 1-{5-[1-(2,4-Bis-trifluoromethyl-benzyl)-1H-indazol-5-ylmethylene]-4-oxo-4,5-dihydro-thiazol-2-yl}-piperidine-3-(R)-carboxylic acid]
EC50: 9 nM

O=C1N=C(N2CCN[C@@H](CO)C2)S/C1=C\c1ccc2c(cnn2Cc2ccc(O)cc2C(F)(F)F)c1 [Example 250, 2-[(3R)-3-(Hydroxymethyl)piperazin-1-yl]-5-({1-[4-hydroxy-2-(trifluoromethyl)benzyl]-1H-indazol-5-yl}methylidene)-1,3-thiazol-4(5H)-one]
EC50: 190 nM

CNC(=O)CN1CCN(C2=NC(=O)/C(=C/c3ccc4c(cnn4Cc4ccc(Cl)cc4C(F)(F)F)c3)S2)CC1 [Example 82, 2-(4-{5-[1-(4-Chloro-2-trifluoromethyl-benzyl)-1H-indazol-5-ylmethylene]-4-oxo-4,5-dihydro-thiazol-2-yl}piperazin-1-yl)-N-methyl-acetamide]
EC50: 7.6 nM

CN1CCN(C2=NC(=O)/C(=C/c3ccc4c(cnn4Cc4ccc(Cl)cc4Cl)c3)S2)CC1 [Example 25, 5-[1-(2,4-Dichloro-benzyl)-1H-indazol-5-ylmethylene]-2-(4-methyl-piperazin-1-yl)-thiazol-4-one]
EC50: 68 nM

C[C@@H]1CN(C2=NC(=O)/C(=C/c3ccc4c(cnn4Cc4ccc(C(C)(C)O)cc4C(F)(F)F)c3)S2)C[C@H](C)N1 [Example 243, 2-((3R,5S)-3,5-Dimethylpiperazin-1-yl)-5-({1-[4-(1-hydroxy-1-methylethyl)-2-(trifluoromethyl)benzyl]-1H-indazol-5-yl}methylidene)-1,3-thiazol-4(5H)-one]
EC50: 38 nM

O=C1N=C(N2CCO[C@H](CO)C2)S/C1=C\c1ccc2c(c1)c(Cl)nn2Cc1ccc(Cl)cc1C(F)(F)F [Example 185, 5-[3-Chloro-1-(4-chloro-2-trifluoromethyl-benzyl)-1H-indazol-5-ylmethylene]-2-(2-(S)-hydroxymethyl-morpholin-4-yl)-thiazol-4-one]
EC50: 3 nM

O=C1N=C(N2CCS(=O)(=O)CC2)S/C1=C\c1ccc2c(cnn2Cc2ccc(Cl)cc2C(F)(F)F)c1 [Example 146, 5-[1-(4-Chloro-2-trifluoromethyl-benzyl)-1H-indazol-5-ylmethylene]-2-(1,1-dioxidothiomorpholin-4-yl)-thiazol-4-one]
EC50: 14 nM

C[C@@H]1CNCCN1C1=NC(=O)/C(=C/c2ccc3c(cnn3Cc3ccc(Cl)cc3C(F)(F)F)c2)S1 [Example 83, 5-[1-(4-Chloro-2-trifluoromethyl-benzyl)-1H-indazol-5-ylmethylene]-2-(2-(R)-methyl-piperazin-1-yl)-thiazol-4-one]
EC50: 15 nM

CC(C)(C)OC[C@@H]1CN(C2=NC(=O)/C(=C/c3ccc4c(cnn4Cc4ccc(C(F)(F)F)cc4C(F)(F)F)c3)S2)CCO1 [Example 143, 5-({1-[2,4-Bis(trifluoromethyl)benzyl]-1H-indazol-5-yl}methylidene)-2-[2(S)-(tert-butoxymethyl)morpholin-4-yl]-1,3-thiazol-4(5H)-one]
EC50: 56 nM

CN1C2CCC1CN(C1=NC(=O)/C(=C/c3ccc4c(cnn4Cc4ccc(C(F)(F)F)cc4C(F)(F)F)c3)S1)C2 [Example 103, 5-[1-(2,4-Bis-trifluoromethyl-benzyl)-1H-indazol-5-ylmethylene]-2-(8-methyl-3,8-diaza-bicyclo[3.2.1]oct-3-yl)-thiazol-4-one]
EC50: 12.2 nM

CS(=O)(=O)NC1CCN(C2=NC(=O)/C(=C/c3ccc4c(cnn4Cc4ccc(C(F)(F)F)cc4C(F)(F)F)c3)S2)CC1 [Example 120, N-(1-{5-[1-(2,4-Bis-trifluoromethyl-benzyl)-1H-indazol-5-ylmethylene]-4-oxo-4,5-dihydro-thiazol-2-yl}-piperidin-4-yl)-methanesulfonamide]
EC50: 27 nM

CNC(=O)[C@H]1CN(C2=NC(=O)/C(=C/c3ccc4c(cnn4Cc4ccc(Cl)cc4C(F)(F)F)c3)S2)CCN1 [Example 226, (2R)-4-[5-({1-[4-Chloro-2-(trifluoromethyl)benzyl]-1H-indazol-5-yl}methylidene)-4-oxo-4,5-dihydro-1,3-thiazol-2-yl]-N-methylpiperazine-2-carboxamide]
EC50: 8 nM

CNC1CN(C2=NC(=O)/C(=C/c3ccc4c(cnn4Cc4ccc(Cl)cc4C(F)(F)F)c3)S2)C1 [Example 270, 5-({1-[4-Chloro-2-(trifluoromethyl)benzyl]-1H-indazol-5-yl}methylidene)-2-[3-(methylamino)azetidin-1-yl]-1,3-thiazol-4(5H)-one]
EC50: 8 nM

O=C1N=C(N2CCN(CCO)CC2)S/C1=C\c1ccc2c(cnn2Cc2ccc(C(F)(F)F)cc2C(F)(F)F)c1 [Compound 6, 5-[1-(2,4-Bis-trifluoromethyl-benzyl)-1H-indazol-5-ylmethylene]-2-[4-(2-hydroxy-ethyl)-piperazin-1-yl]-thiazol-4-one]
EC50: 9 nM

C[C@H]1CN(C2=NC(=O)/C(=C/c3ccc4c(cnn4Cc4ccc(Cl)cc4C(F)(F)F)c3)S2)[C@@H](C)CN1 [Example 65, 5-[1-(4-Chloro-2-trifluoromethyl-benzyl)-1H-indazol-5-ylmethylene]-2-(2-(S),5-(S)-dimethyl-piperazin-1-yl)-thiazol-4-one]
EC50: 17 nM

CC1C(=O)N(C)CCN1C1=NC(=O)/C(=C/c2ccc3c(cnn3Cc3ccc(C(F)(F)F)cc3C(F)(F)F)c2)S1 (stereo not drawn) [Example 170, 4-{5-[1-(2,4-Bis-trifluoromethyl-benzyl)-1H-indazol-5-ylmethylene]-4-oxo-4,5-dihydro-thiazol-2-yl}-1,3-dimethyl-piperazin-2-one]
EC50: 30 nM

NC(=O)C1CN(C2=NC(=O)/C(=C/c3ccc4c(cnn4Cc4ccc(C(F)(F)F)cc4C(F)(F)F)c3)S2)CCN1 (stereo not drawn) [Example 274, 4-[5-({1-[2,4-Bis(trifluoromethyl)benzyl]-1H-indazol-5-yl}methylidene)-4-oxo-4,5-dihydro-1,3-thiazol-2-yl]piperazine-2-carboxamide]
EC50: 8 nM

N#Cc1nn(Cc2ccc(C(F)(F)F)cc2C(F)(F)F)c2ccc(/C=C3\SC(N4CCN[C@@H](CO)C4)=NC3=O)cc12 [Example 217, 1-[2,4-Bis(trifluoromethyl)benzyl]-5-({2-[3-(R)-(hydroxymethyl)piperazin-1-yl]-4-oxo-1,3-thiazol-5(4H)-ylidene}methyl)-1H-indazole-3-carbonitrile]
EC50: 27 nM

C[C@@H]1CN(C2=NC(=O)/C(=C/c3ccc4c(cnn4Cc4ccc(C(F)(F)F)cc4C(F)(F)F)c3)S2)C[C@H](C)[N+]1(C)C [Example 240, (2R,6S)-4-[5-({1-[2,4-Bis(trifluoromethyl)benzyl]-1H-indazol-5-yl}methylidene)-4-oxo-4,5-dihydro-1,3-thiazol-2-yl]-1,1,2,6-tetramethylpiperazin-1-ium chloride]
EC50: 9 nM

O=C1N=C(N2CC(N3CCOCC3)C2)S/C1=C\c1ccc2c(cnn2Cc2ccc(C(F)(F)F)cc2C(F)(F)F)c1 [Example 204, 5-({1-[2,4-Bis(trifluoromethyl)benzyl]-1H-indazol-5-yl}methylidene)-2-(3-morpholin-4-ylazetidin-1-yl)-1,3-thiazol-4(5H)-one]
EC50: 42 nM

COC[C@@H]1CN(C2=NC(=O)/C(=C/c3ccc4c(cnn4Cc4ccc(C(F)(F)F)cc4C(F)(F)F)c3)S2)CCN1 [Example 211, 5-({1-[2,4-Bis(trifluoromethyl)benzyl]-1H-indazol-5-yl}methylidene)-2-[3-(S)-(methoxymethyl)piperazin-1-yl]-1,3-thiazol-4(5H)-one]
EC50: 31 nM

O=C1N=C(N2CCC(C(=O)O)CC2)S/C1=C\c1ccc2c(c1)c(I)nn2Cc1ccc(C(F)(F)F)cc1C(F)(F)F [Example 191, 1-[5-({1-[2,4-Bis(trifluoromethyl)benzyl]-3-iodo-1H-indazol-5-yl}methylidene)-4-oxo-4,5-dihydro-1,3-thiazol-2-yl]piperidine-4-carboxylic acid]
EC50: 3.6 nM

CC1(C(=O)O)CCN(C2=NC(=O)/C(=C/c3ccc4c(cnn4Cc4ccc(C(F)(F)F)cc4C(F)(F)F)c3)S2)CC1 [Example 74, 1-{5-[1-(2,4-Bis-trifluoromethyl-benzyl)-1H-indazol-5-ylmethylene]-4-oxo-4,5-dihydro-thiazol-2-yl}-4-methyl-piperidine-4-carboxylic acid]
EC50: 56.2 nM

NC(=O)C1CN(C2=NC(=O)/C(=C/c3ccc4c(cnn4Cc4ccc(Cl)cc4C(F)(F)F)c3)S2)CCN1 (stereo not drawn) [Example 273, 4-[5-({1-[4-Chloro-2-(trifluoromethyl)benzyl]-1H-indazol-5-yl}methylidene)-4-oxo-4,5-dihydro-1,3-thiazol-2-yl]piperazine-2-carboxamide]
EC50: 6 nM

O=C1N=C(N2CCCN(CC(F)(F)F)CC2)S/C1=C\c1ccc2c(cnn2Cc2ccc(Cl)cc2C(F)(F)F)c1 [Example 135, 5-[1-(4-Chloro-2-trifluoromethyl-benzyl)-1H-indazol-5-ylmethylene]-2-[4-(2,2,2-trifluoro-ethyl)-[1,4]diazepan-1-yl]-thiazol-4-one]
EC50: 52 nM

O=C1N=C(N2CC(O)C2)S/C1=C\c1ccc2c(cnn2Cc2ccc(Cl)cc2C(F)(F)F)c1 [Example 68, 5-[1-(4-Chloro-2-trifluoromethyl-benzyl)-1H-indazol-5-ylmethylene]-2-(3-hydroxy-azetidin-1-yl)-thiazol-4-one]
EC50: 9.6 nM

CNC1CCCCN(C2=NC(=O)/C(=C/c3ccc4c(cnn4Cc4ccc(Cl)cc4C(F)(F)F)c3)S2)C1 (stereo not drawn) [Example 161, 5-[1-(4-Chloro-2-trifluoromethyl-benzyl)-1H-indazol-5-ylmethylene]-2-(3-methylamino-azepan-1-yl)-thiazol-4-one]
EC50: 24.8 nM
